Reference: publication PMC5876388 (Scientific Reports, 2018)

Assays:
PEN-2 = assay: Western blot in HPB-ALL cells; assay type: cell-based, human; details: 72 h
Description: (§1) (A) Schematic representation of γ-secretase complex. γ-Secretase is composed of four membrane proteins: presenilin1 (PS1), nicastrin (NCT), anterior pharynx defective 1 (APH-1) and presenilin enhancer 2 (PEN-2). […] (E,F) Relative protein levels of nicastrin mature and immature analyzed by densitometry. […] P values were analyzed by Student’s t test.
(§2) Media also contained different concentrations of compound. Cells were incubated at 37 °C for 72 h (12 h, when treatment with MG132). After incubation, cells were centrifuged and collected, and then washed with 500 μL of PBS twice. To prepare cell lysate and confirm protein expression levels, the same method as described above was used.

APH-1 = assay: Western blot in HPB-ALL cells; assay type: cell-based, human; details: 72 h
Description: as §1, §2

PS1 = assay: Western blot in HPB-ALL cells; assay type: cell-based, human; details: 72 h
Description: as §1, §2

HEK293 cells = assay: Cytotoxicity test, FMCA; assay type: cell-based, human; details: 72 h
Description: (§3) The medium was exchanged to fresh medium with different concentrations of compound and cells were incubated for 72 h.

Cytotoxicity test, FMCA = assay type: cell-based, human; details: human, HEK293 cells, FMCA, read-out: IC50 cytotoxicity 293
Description: as §3

nicastrin = molecular target: T1, nicastrin (Homo sapiens, UniProt Q92542); assay: Western blot in HPB-ALL cells; assay type: cell-based
T1 construct: endogenous in cells; host or cells: HPB-ALL
Description: as §1, §2

[1] = tested on: Notch signaling (LS174T Notch cells); assay: Notch signaling transcriptional activity assay (luciferase reporter, T-REx system); assay type: cell-based; details: Homo sapiens, LS174T, 12 h, read-out: IC50 of Notch signal inhibitory activity (luciferase)
Description: We constructed a cell-based reporter assay with the T-Rex system to evaluate Notch signaling inhibitory activity. Without doxycycline (Dox), the tetracycline repressor (TetR) inhibits the expression of N-terminally FLAG-tagged mouse Notch1(1704–2531), which is 40 aa longer than NICD at the N-terminus. In the presence of Dox, Dox binds to the TetR to release the inhibition of expression of Notch1(1704–2531). Cleavage of Notch1(1704–2531) by γ-secretase generates NICD, which then translocates to the nucleus and forms a heterotrimer with RBP-J driving luciferase transcription (Fig. 2). This assay cells (LS174T Notch cells) was stably incorporated with pGL4.20 luciferase plasmid which has 12 × RBP-J binding site (12 copies of […])-β-globin promoter. Cell viability was measured using a fluorometric microculture cytotoxicity assay. […] The composition of the G. speciosa MeOH extract was partitioned successively with hexane, EtOAc, nBuOH, and water.
Figure 2 The T-REx assay system. Without Dox, expression of Notch1(1704–2531) is suppressed by TetR. The addition of Dox inactivates TetR to initiate expression of Notch1(1704–2531), which is then cleaved by endogenous γ-secretase to form NICD. NICD then translocates to the nucleus and forms a heterotrimer with RBP-J and MAML that binds to a 12× RBP-J binding site to drive luciferase expression. Luciferase activity was detected as Notch signaling pathway activity. Dox: doxycycline, TetR: tetracycline repressor, Luc.: luciferase.
Assay cells (LS174T Notch cells: 2 × 10^4 cells/well) were incubated in a 96-well white plate at 37 °C for 12 h. After incubation, 50 ng/mL Dox was added to each well to induce expression of exogenous Notch1(1704–2531) protein. After incubation at 37 °C for 12 h, the medium was changed to Dox-free medium containing individual samples. Luciferase activity was measured after treatment at 37 °C for 12 h. Cell viability was evaluated by the FMCA method at the same time. These assays were performed in 0.1% DMSO (n = 3). Error bars represent SD.
In a 96-well white plate, Cells (LS174T Notch cells; 2 × 10^4 cells per well) were cultured at 37 °C for 12 h. To express Notch1(1704–2531) protein in the cells, doxycycline (50 ng/mL) was added to each well, and cells were cultured at 37 °C for 12 h. Medium was changed to doxycycline-free medium containing each sample, then cells were incubated with at 37 °C for 12 h. A microplate luminometer (Thermo Fisher Scientific Inc., Waltham, USA) and the Bright-Glo™ Luciferase Assay System (Promega Co., Madison, USA) were used for measurement of Luciferase activity. Fluorometric Microculture Cytotoxicity Assay (FMCA) was used for measurement of cell viability of the sample-treated cells. After incubation of assay cells (2×10^4 cells per well) in a 96-well black plate at 37 °C for 24 h, samples addition was performed at the same time as the luciferase assay. The assay cells were cultures at 37 °C for 12 h. A fluorescence plate reader (Thermo Fisher Scientific Inc., Waltham, USA) was used for determination of cell viability by FMCA.

T1 sequence (Q92542 34-709): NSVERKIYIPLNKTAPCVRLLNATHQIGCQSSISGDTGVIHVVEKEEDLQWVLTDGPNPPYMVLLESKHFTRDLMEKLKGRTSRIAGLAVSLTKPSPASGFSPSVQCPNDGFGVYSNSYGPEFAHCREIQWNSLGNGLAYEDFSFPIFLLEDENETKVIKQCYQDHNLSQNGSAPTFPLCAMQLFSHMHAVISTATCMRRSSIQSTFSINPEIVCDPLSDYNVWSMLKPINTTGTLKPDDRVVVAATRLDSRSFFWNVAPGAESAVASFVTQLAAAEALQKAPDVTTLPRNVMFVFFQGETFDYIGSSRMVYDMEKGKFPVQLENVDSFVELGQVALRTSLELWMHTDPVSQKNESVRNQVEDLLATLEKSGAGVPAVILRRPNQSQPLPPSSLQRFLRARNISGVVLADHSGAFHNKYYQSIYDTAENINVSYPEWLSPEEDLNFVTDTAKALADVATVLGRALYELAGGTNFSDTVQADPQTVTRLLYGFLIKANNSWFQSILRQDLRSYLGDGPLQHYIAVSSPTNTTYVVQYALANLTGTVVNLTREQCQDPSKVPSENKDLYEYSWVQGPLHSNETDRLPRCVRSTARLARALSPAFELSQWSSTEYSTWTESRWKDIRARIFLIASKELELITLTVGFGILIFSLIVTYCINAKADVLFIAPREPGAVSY

nicastrin levels (nicastrin; 72 h, Western blot): reduced
decrease in nicastrin expression with proteasome inhibitor MG132 (nicastrin; cowanin 15 μM + MG132 5 μM, 12 h): not so marked
IC50 [1]: 2.4 µM
Structure (SMILES): COc1c(O)cc2oc3cc(O)c(CC=C(C)C)c(O)c3c(=O)c2c1C/C=C(\C)CCC=C(C)C [Compound 2, cowanin]
expression of PEN-2 (PEN-2): didn’t affect
expression of APH-1 (APH-1): didn’t affect
expression of PS1 (PS1): didn’t affect
viability of normal human embryonic kidney 293 cells (HEK293 cells; 10 μM): not affected
cytotoxicity on 293 cells (HEK293 cells; 20 μM): cytotoxicity was detected
IC50 at 72 h (Cytotoxicity test, FMCA): 15.1 µM
immature versus mature nicastrin (nicastrin; 15 μM, 12 h, densitometry): decreased immature nicastrin stronger than mature nicastrin
